These are literature values, as cited in US10111950B2, “Modified glycolipids and methods of making and using the same” (Vaccinex, Inc., priority 2013, dated 2018).

In the data set the test system is iNKT cells. The note with it: repeated stimulation; cited from earlier work.

Take `CCCCCCCCCCCCCCCCCCCCCCCCCC(=O)N[C@@H](CO[C@H]1O[C@H](CO)[C@H](O)[C@H](O)[C@H]1O)[C@H](O)[C@H](O)CCCCCCCCCCCCCC` [αGalCer, α-galactosylceramide]: the “iNKT cell response to stimulation with free αGalCer” value is “results in iNKT cell anergy”.
